{"source": "patent US20100143385A1", "about": "“METHODS FOR REDUCING PHOSPHATE ABSORPTION” (priority 2006, published 2010)", "tested_on": "chicks fed a phytic phosphorous basal diet", "assay": "chicken model: chicks fed Pi deficient phytic phosphorous diet with added 1α-hydroxyvitamin D3", "assay_type": "in vivo, Single Comb White Leghorn chicks", "text": "Animal model: The dietary sources of inorganic phosphate (Pi) are largely mineral phosphates or phosphate from animal tissues and products (milk and eggs). These Pi sources are readily available for absorption by monogastric animals. In diseases where the uptake of phosphorous requires intervention, patients are usually required to avoid these foods and take Pi binders. While this is a useful strategy in reducing the absorption of Pi, patients taking alternative food (e.g., plant based foods) during the treatment of diseases such as end stage renal failure is exposed to another source of phosphate that may serve as a pool of Pi for absorption. Phytic phosphorous (PP) represents 70-80% of all phosphorous in plant based foods. PP is normally unavailable for absorption in monogastric animals when consumed and is excreted with the fecal waste.\nProviding 1α-hydroxyvitamin D3 to the chickens fed the Pi deficient diet raised the serum phosphate level. Therefore, this model can be used to test whether anti-phytic acid antibodies would be effective in reducing increased serum phosphate levels from a phytic origin caused by 1α-hydroxyvitamin D3.\nAnimal experiment: The model used in this study was described by Biehl and Baker, J. Nutr. 1997, 127:2054-2059 with the exception of antibodies to phytic acid. The negative control used in this study was a Pi deficient diet (Pi=inorganic phosphate which are largely mineral phosphates or phosphate from animal tissues and products such as milk and eggs), where the dietary phosphorous used was phytic phosphate. […] The positive control was the same diet as the negative control, but supplemented with 1α-hydroxyvitamin D3 (20 μg/kg diet, Sigma). […] The remaining dietary treatment was the positive control plus the antibody to phytic acid (1 g of dried egg yolk powder produced as described above). The negative and positive controls were fed 1 g/kg diet of dried yolk powder from hens injected with the adjuvant. These egg yolk powders lacked specific antibodies.\nA total of 3 treatments were used (negative control, positive control, positive control plus antibody to phytic acid). Six one-day old male Single Comb White Leghorn chicks were assigned to each of the dietary treatments. Chicks were fed the dietary treatments for 10 days, weighed, and blood sampled for determining plasma phosphorous concentration using a Roche/Hitachi analyzer (based on the reaction of phosphate with ammonium molybdate to form ammonium phosphomolybdate without reduction). Excreta (n=1) was collected under each group of 6 chicks for mineral analysis. Chicks were euthanized and the right tibiotarsus of each chick was collected, dried, ether extracted, and ashed for the determination of bone mineral content of fat free, dried bone.\nt-Test comparison were used to determine if (1) the addition of 1α-hydroxyvitamin D3 changed the endpoint relative to the negative control diet and (2) the addition of antibody to phytate to the 1α-hydroxyvitamin D3 diet (positive control) reduced the plasma phosphate level. P values are given in the results presented below.", "key": {"[1]": {"details": "relative to Pi deficient negative control diet"}}}
{"smiles": "C=C1/C(=C\\C=C2/CCC[C@]3(C)[C@@H]([C@H](C)CCCC(C)C)CC[C@@H]23)C[C@@H](O)C[C@@H]1O", "note": "[1α-hydroxyvitamin D3]", "values": [{"measurement": "Plasma Phosphate", "setting": "chicks, Pi deficient diet, 10 days, 1α-hydroxyvitamin D3 20 μg/kg diet alone, or plus antibody 1 g/kg diet dried egg yolk powder", "value": 6.70, "unit": "mg/dL"}, {"measurement": "excreta phosphorous", "setting": "excreta (n=1) collected under each group of 6 chicks", "value": 0.5, "unit": "%"}, {"measurement": "decrease of excreta phosphorous", "setting": "[1]", "value": 22, "unit": "%"}, {"measurement": "increase of bone ash", "setting": "[1]", "value": 8, "unit": "%"}, {"measurement": "increase of plasma phosphorous", "setting": "[1]", "value": 71, "unit": "%"}, {"measurement": "bone ash", "setting": "right tibiotarsus, fat free dried bone, after 10 days of diet", "value": 37.4, "unit": "%"}]}
